Laboratory results reported in PubChem BioAssay (NCI).
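96-well plates; 48 h exposure; 5 concentrations. Endpoints by linear interpolation between flanking doses. Not reached: highest tested concentration assigned. TGI denotes the concentration required for complete inhibition of growth.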

What was measured:
Assay in all cases: inhibition of tumour cell growth, NCI panel, 48 h
SF-295 CNS = test system: SF-295 CNS
NCI-H460 lung = test system: NCI-H460 lung
TK-10 renal = test system: TK-10 renal
K-562 leukemia = test system: K-562 leukemia
SF-539 CNS = test system: SF-539 CNS
NCI-H226 lung = test system: NCI-H226 lung
MDA-MB-231 breast = test system: MDA-MB-231 breast
HOP-92 NSCLC = test system: HOP-92 NSCLC
UACC-257 melanoma = test system: UACC-257 melanoma
COLO 205 colon = test system: COLO 205 colon
SK-MEL-5 melanoma = test system: SK-MEL-5 melanoma
LOX IMVI melanoma = test system: LOX IMVI melanoma
HT29 colon = test system: HT29 colon
786-0 renal = test system: 786-0 renal
OVCAR-8 ovarian = test system: OVCAR-8 ovarian
MALME-3M melanoma = test system: MALME-3M melanoma
HCC-2998 colon = test system: HCC-2998 colon
ACHN renal = test system: ACHN renal
NCI-H522 lung = test system: NCI-H522 lung
BT-549 breast = test system: BT-549 breast
OVCAR-3 ovarian = test system: OVCAR-3 ovarian
HOP-62 NSCLC = test system: HOP-62 NSCLC
M14 melanoma = test system: M14 melanoma
U251 CNS = test system: U251 CNS
SK-OV-3 ovarian = test system: SK-OV-3 ovarian
DU-145 prostate = test system: DU-145 prostate
UACC-62 melanoma = test system: UACC-62 melanoma
PC-3 prostate = test system: PC-3 prostate
HL-60(TB) leukemia = test system: HL-60(TB) leukemia
NCI-H23 lung = test system: NCI-H23 lung
SF-268 CNS = test system: SF-268 CNS
HCT-116 colon = test system: HCT-116 colon
SK-MEL-28 melanoma = test system: SK-MEL-28 melanoma
CAKI-1 renal = test system: CAKI-1 renal
RPMI-8226 leukemia = test system: RPMI-8226 leukemia
SN12C renal = test system: SN12C renal
EKVX NSCLC = test system: EKVX NSCLC
UO-31 renal = test system: UO-31 renal
RXF 393 renal = test system: RXF 393 renal
A549 NSCLC = test system: A549 NSCLC
CCRF-CEM leukemia = test system: CCRF-CEM leukemia
IGROV1 ovarian = test system: IGROV1 ovarian
A498 renal = test system: A498 renal
KM12 colon = test system: KM12 colon
T-47D breast = test system: T-47D breast
MDA-N = test system: MDA-N
HS 578T breast = test system: HS 578T breast
SR leukemia = test system: SR leukemia
HCT-15 colon = test system: HCT-15 colon
MDA-MB-435 = test system: MDA-MB-435
OVCAR-4 ovarian = test system: OVCAR-4 ovarian
SNB-19 CNS = test system: SNB-19 CNS
MOLT-4 leukemia = test system: MOLT-4 leukemia
SW-620 colon = test system: SW-620 colon
MCF7 breast = test system: MCF7 breast
NCI/ADR-RES ovarian = test system: NCI/ADR-RES ovarian
SNB-75 CNS = test system: SNB-75 CNS
SK-MEL-2 melanoma = test system: SK-MEL-2 melanoma
OVCAR-5 ovarian = test system: OVCAR-5 ovarian

`Cc1nc(C)c(N2CCN(CN)CC2)c(=O)[nH]1` was tested, and the TGI (SF-295 CNS) was over 100 µM, the TGI (NCI-H460 lung) was over 100 µM and the TGI (TK-10 renal) was over 100 µM. For the same molecule, the TGI (K-562 leukemia) was over 100 µM, the TGI (SF-539 CNS) was over 100 µM and the TGI (NCI-H226 lung) was over 100 µM. It also gave a TGI (MDA-MB-231 breast) of over 100 µM, a TGI (HOP-92 NSCLC) of over 100 µM and a TGI (UACC-257 melanoma) of over 100 µM. It also gave a TGI (COLO 205 colon) of over 100 µM, a TGI (SK-MEL-5 melanoma) of over 100 µM and a TGI (LOX IMVI melanoma) of over 100 µM. It also gave a TGI (HT29 colon) of over 100 µM, a TGI (786-0 renal) of over 100 µM and a TGI (OVCAR-8 ovarian) of over 100 µM. For the same molecule, the TGI (MALME-3M melanoma) was over 100 µM, the TGI (HCC-2998 colon) was over 100 µM and the TGI (ACHN renal) was over 100 µM. It also gave a TGI (NCI-H522 lung) of over 100 µM, a TGI (BT-549 breast) of over 100 µM and a TGI (OVCAR-3 ovarian) of over 100 µM. It also gave a TGI (HOP-62 NSCLC) of over 100 µM, a TGI (M14 melanoma) of over 100 µM and a TGI (U251 CNS) of over 100 µM. For the same molecule, the TGI (SK-OV-3 ovarian) was over 100 µM, the TGI (DU-145 prostate) was over 100 µM and the TGI (UACC-62 melanoma) was over 100 µM. For the same molecule, the TGI (PC-3 prostate) was over 100 µM, the TGI (HL-60(TB) leukemia) was over 100 µM and the TGI (NCI-H23 lung) was over 100 µM. The TGI (SF-268 CNS) was over 100 µM, the TGI (HCT-116 colon) was over 100 µM and the TGI (SK-MEL-28 melanoma) was over 100 µM. The TGI (CAKI-1 renal) was over 100 µM, the TGI (RPMI-8226 leukemia) was over 100 µM and the TGI (SN12C renal) was over 100 µM. For the same molecule, the TGI (EKVX NSCLC) was over 100 µM, the TGI (UO-31 renal) was over 100 µM and the TGI (RXF 393 renal) was over 100 µM. The TGI (A549 NSCLC) was over 100 µM, the TGI (CCRF-CEM leukemia) was over 100 µM and the TGI (IGROV1 ovarian) was over 100 µM. For the same molecule, the TGI (A498 renal) was over 100 µM, the TGI (KM12 colon) was over 100 µM and the TGI (T-47D breast) was over 100 µM. The TGI (MDA-N) was over 100 µM, the TGI (HS 578T breast) was over 100 µM and the TGI (SR leukemia) was over 100 µM. It also gave a TGI (HCT-15 colon) of over 100 µM, a TGI (MDA-MB-435) of over 100 µM and a TGI (OVCAR-4 ovarian) of over 100 µM. It also gave a TGI (SNB-19 CNS) of over 100 µM, a TGI (MOLT-4 leukemia) of over 100 µM and a TGI (SW-620 colon) of over 100 µM. It also gave a TGI (MCF7 breast) of over 100 µM and a TGI (NCI/ADR-RES ovarian) of over 100 µM.
In the case of `Cc1nc2ccc(Cl)cc2c2c1CCO2`, the TGI (SF-295 CNS) is reported as over 100 µM, the TGI (NCI-H460 lung) is reported as over 100 µM and the TGI (TK-10 renal) is reported as over 100 µM. It also gave a TGI (K-562 leukemia) of over 100 µM, a TGI (SF-539 CNS) of over 100 µM and a TGI (NCI-H226 lung) of over 100 µM. It also gave a TGI (MDA-MB-231 breast) of over 100 µM, a TGI (HOP-92 NSCLC) of over 100 µM and a TGI (UACC-257 melanoma) of over 100 µM. For the same molecule, the TGI (COLO 205 colon) was over 100 µM, the TGI (SK-MEL-5 melanoma) was over 100 µM and the TGI (LOX IMVI melanoma) was over 100 µM. For the same molecule, the TGI (HT29 colon) was over 100 µM, the TGI (786-0 renal) was over 100 µM and the TGI (OVCAR-8 ovarian) was over 100 µM. It also gave a TGI (MALME-3M melanoma) of over 100 µM, a TGI (HCC-2998 colon) of over 100 µM and a TGI (ACHN renal) of over 100 µM. For the same molecule, the TGI (NCI-H522 lung) was over 100 µM, the TGI (BT-549 breast) was over 100 µM and the TGI (OVCAR-3 ovarian) was over 100 µM. The TGI (HOP-62 NSCLC) was over 100 µM, the TGI (U251 CNS) was over 100 µM and the TGI (DU-145 prostate) was over 100 µM. It also gave a TGI (UACC-62 melanoma) of over 100 µM, a TGI (PC-3 prostate) of over 100 µM and a TGI (HL-60(TB) leukemia) of over 100 µM. The TGI (NCI-H23 lung) was over 100 µM, the TGI (SF-268 CNS) was over 100 µM and the TGI (HCT-116 colon) was over 100 µM. It also gave a TGI (SK-MEL-28 melanoma) of over 100 µM, a TGI (CAKI-1 renal) of 79.6 µM and a TGI (RPMI-8226 leukemia) of over 100 µM. It also gave a TGI (SN12C renal) of over 100 µM, a TGI (EKVX NSCLC) of over 100 µM and a TGI (UO-31 renal) of over 100 µM. It also gave a TGI (RXF 393 renal) of 71.3 µM, a TGI (A549 NSCLC) of over 100 µM and a TGI (CCRF-CEM leukemia) of over 100 µM. It also gave a TGI (IGROV1 ovarian) of over 100 µM, a TGI (A498 renal) of over 100 µM and a TGI (KM12 colon) of over 100 µM. For the same molecule, the TGI (T-47D breast) was over 100 µM, the TGI (MDA-N) was over 100 µM and the TGI (SNB-75 CNS) was over 100 µM. For the same molecule, the TGI (HS 578T breast) was over 100 µM, the TGI (SR leukemia) was over 100 µM and the TGI (HCT-15 colon) was over 100 µM. It also gave a TGI (MDA-MB-435) of over 100 µM, a TGI (OVCAR-4 ovarian) of over 100 µM and a TGI (SNB-19 CNS) of over 100 µM. For the same molecule, the TGI (MOLT-4 leukemia) was over 100 µM, the TGI (SW-620 colon) was over 100 µM and the TGI (MCF7 breast) was over 100 µM. For the same molecule, the TGI (NCI/ADR-RES ovarian) was over 100 µM.
`COC(=O)CCC(=O)NC1=C(Nc2ccccc2)C(=O)c2ccccc2C1=O` showed a TGI (SF-295 CNS) of 29.9 µM, a TGI (NCI-H460 lung) of 31.9 µM and a TGI (TK-10 renal) of 41.6 µM. For the same molecule, the TGI (K-562 leukemia) was over 57.6 µM, the TGI (SF-539 CNS) was 29.1 µM and the TGI (NCI-H226 lung) was 28.6 µM. For the same molecule, the TGI (MDA-MB-231 breast) was 30.1 µM, the TGI (HOP-92 NSCLC) was 31.7 µM and the TGI (UACC-257 melanoma) was 9.76 µM. The TGI (COLO 205 colon) was 35.3 µM, the TGI (SK-MEL-5 melanoma) was 3.3 µM and the TGI (LOX IMVI melanoma) was 13.9 µM. The TGI (HT29 colon) was 35.7 µM, the TGI (786-0 renal) was 25.4 µM and the TGI (OVCAR-8 ovarian) was 47.4 µM. For the same molecule, the TGI (MALME-3M melanoma) was 5.61 µM, the TGI (HCC-2998 colon) was 37.9 µM and the TGI (ACHN renal) was 29.5 µM. It also gave a TGI (NCI-H522 lung) of 29.2 µM, a TGI (BT-549 breast) of 23.4 µM and a TGI (OVCAR-3 ovarian) of 10.4 µM. It also gave a TGI (HOP-62 NSCLC) of 32.1 µM, a TGI (M14 melanoma) of 7.27 µM and a TGI (U251 CNS) of 24.2 µM. The TGI (SK-OV-3 ovarian) was 30.9 µM, the TGI (DU-145 prostate) was 23.2 µM and the TGI (UACC-62 melanoma) was 7.55 µM. For the same molecule, the TGI (PC-3 prostate) was 65.2 µM, the TGI (SK-MEL-2 melanoma) was 16.4 µM and the TGI (HL-60(TB) leukemia) was 13.5 µM. For the same molecule, the TGI (NCI-H23 lung) was 12.9 µM, the TGI (SF-268 CNS) was 51.5 µM and the TGI (HCT-116 colon) was 23 µM. It also gave a TGI (SK-MEL-28 melanoma) of 17.7 µM, a TGI (CAKI-1 renal) of 27.5 µM and a TGI (RPMI-8226 leukemia) of 52.3 µM. The TGI (SN12C renal) was 28.9 µM, the TGI (EKVX NSCLC) was 34.2 µM and the TGI (UO-31 renal) was 32.2 µM. The TGI (RXF 393 renal) was 21.4 µM, the TGI (A549 NSCLC) was 37 µM and the TGI (CCRF-CEM leukemia) was 42.9 µM. The TGI (IGROV1 ovarian) was 26 µM, the TGI (A498 renal) was 28.6 µM and the TGI (KM12 colon) was 32.5 µM. The TGI (T-47D breast) was 32.8 µM, the TGI (MDA-N) was 3.59 µM and the TGI (SNB-75 CNS) was 33.2 µM. For the same molecule, the TGI (HS 578T breast) was 32.7 µM, the TGI (SR leukemia) was 56.7 µM and the TGI (HCT-15 colon) was 27.6 µM. It also gave a TGI (OVCAR-5 ovarian) of 19.7 µM, a TGI (MDA-MB-435) of 3.45 µM and a TGI (OVCAR-4 ovarian) of 22.9 µM. The TGI (SNB-19 CNS) was 31.4 µM, the TGI (MOLT-4 leukemia) was 38.9 µM and the TGI (SW-620 colon) was 30.6 µM. For the same molecule, the TGI (MCF7 breast) was 10.4 µM and the TGI (NCI/ADR-RES ovarian) was 39.9 µM.
